pIC50: −log10 of the molar value. No end group written: not given here. A value given as a limit tells only on which side of the number the result lay.

For data set [1], the target named is DRB3_0202 (Homo sapiens, UniProt P01903+P79483, A212P/D57E/F66Y/L67A/R103Q/R218S/R40L/S89Y/T80R/V86D/Y55F/Y59H). As to the kind of experiment: Competitive MHC class II binding assay, DRB3_0202.
The target of data set [2] is DRB5_0101 (Homo sapiens, UniProt P01903+Q30154). As to the kind of experiment: Competitive MHC class II binding assay, DRB5_0101.
In data set [3] the target is DQA10101-DQB10501 (Homo sapiens, UniProt P01909+P01920, A157S/A45G/A70V/C70R/D89V/E106S/E118A/E183D/E77G/F83G/G63E/H151Q/H199R/H252R/H253Q/I129T/I235V/I88M/INS77G/K197Q/L107V/L117V/L119Y/L178F/L71W/L74F/L85Q/L91A/L98M/M46L/N214S/P87R/Q116E/Q256R/Q57E/Q76K/R102G/R240Q/R75S/R78G/S102Y/S185I/S41F/S97I/T103A/T109R/T121G/T122I/T172A/T86R/V148I/V68A/V73E/Y34C/Y58G/Y62H). As to the kind of experiment: Competitive MHC class II binding assay, DQA10101-DQB10501. The settings on record: positive binding at cutoff 1000 nM; read-out: HLA-DQA10101-DQB10501.

The target of data set [4] is DRB1_0701 (Homo sapiens, UniProt P01903+P01911, A100R/A102G/A103Q/D57E/D86V/E43K/F76Y/K127E/L162R/M171V/P40G/Q125H/Q99D/R33Q/R42Y/R54Q/S133A/S66F/T210M/V115G/Y107V/Y59L/Y89S). As to the kind of experiment: Competitive MHC class II binding assay, DRB1_0701.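 Note: displacement of a radiolabeled reference peptide from purified HLA class II protein, with complex-bound radioactivity counted after 2–4 days of incubation and six concentrations spanning a 100,000-fold range.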
In data set [5] the target is T1, DPA10103-DPB10301 (Homo sapiens, UniProt P04440+P20036, A65V/A84D/A85E/E86D/F38Y/G113D/G114E/G40L/I94L/L37V/M105V/M116V/P115A/R125K/T199I).
T1 sequence (P20036 29-260): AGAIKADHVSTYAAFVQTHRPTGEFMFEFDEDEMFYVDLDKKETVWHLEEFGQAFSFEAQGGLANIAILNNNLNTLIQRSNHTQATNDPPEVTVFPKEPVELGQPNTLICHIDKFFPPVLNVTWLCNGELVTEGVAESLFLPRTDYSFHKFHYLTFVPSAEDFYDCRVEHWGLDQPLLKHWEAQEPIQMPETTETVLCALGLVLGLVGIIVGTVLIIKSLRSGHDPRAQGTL
T1 sequence (P04440 30-258 L37V/F38Y/G40L/A65V/A84D/A85E/E86D/I94L/M105V/G113D/G114E/P115A/M116V/R125K/T199I/V234M): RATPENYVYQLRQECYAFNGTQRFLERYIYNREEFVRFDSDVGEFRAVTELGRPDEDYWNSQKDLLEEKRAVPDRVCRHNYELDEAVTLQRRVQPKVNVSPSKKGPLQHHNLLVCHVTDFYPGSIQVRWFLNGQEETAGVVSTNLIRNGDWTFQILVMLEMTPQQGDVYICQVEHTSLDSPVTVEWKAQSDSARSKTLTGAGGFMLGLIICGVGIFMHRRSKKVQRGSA
As to the kind of experiment: Competitive MHC class II binding assay, DPA10103-DPB10301.

The target of data set [6] is DRB1_1302 (Homo sapiens, UniProt P01903+P01911, A100E/A169T/K41T/L162R/M171V/P40S/Q125H/Q178H/Q39Y/Q99D/R42S/S66N/T262R/V115G/W38E/Y61H). As to the kind of experiment: Competitive MHC class II binding assay, DRB1_1302.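 Note: purified HLA class II protein incubated two to four days with a radiolabeled reference binder and test peptide at six concentrations over a 100,000-fold range, complex-bound radioactivity counted.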
A short description of data set [7]: Solubility of peptides in aqueous solutions at different pH (visual inspection, OD, HPLC). The class given is physicochemical. The settings on record: Table 11a; evaluated by visual inspection. From the text: This example describes modifications of parent peptides to improve the aqueous solubility, in particular to increase the solubility in an aqueous solution having pH in a physiologically acceptable range, e.g. from 6 to 8. Solubility is closely related to the ratio between hydrophilic and hydrophobic amino acid residues and the net charge state of the peptide. Peptides have zero net charge at pH=pI, and would be expected to show the lowest solubility at this pH. […] The solubility of these peptides was increased at pH values outside the physiological range (data not shown).
Peptides were tested for their ability to dissolve in aqueous solutions at different pH values. In short, each of the peptides were dissolved in water (pH about 5-6), hydrochloride solution at pH 2 (10 mM HCl), acetate buffer with pH 5 (20 mM acetate and 140 mM sodium chloride), phosphate buffer with pH 7 (20 mM phosphate and 140 mM sodium chloride) or bistrispropate buffer with pH 9 (20 mM bitrispropane and 140 mM sodium chloride, respectively, to produce a final molar concentration of the peptide of about 0.25 mM or 1 mM. Optionally, about 20% DMSO may be part of the solution. For comparison reasons, peptides were also dissolved in acetonitrile or DMSO. The solutions were inspected visually before and after centrifugation for turbidity, presence of particles/aggregates. In addition, presence of turbidity/particles/aggregates were detected by optical density (OD), but might also be detected by size-exclusion chromatography. Sub-visual particles may also be detected by dynamic light scattering (DLS) analysis. The solubility and stability of each peptide were also investigated using HPLC, e.g. RP-HPLC. For example, each of the solutions were injected onto the HPLC and the peak height or peak area of each of the peptides were compared to the corresponding peptide of a chromatogram of peptides dissolved in acetonitrile or DMSO—as peptides were assumed to be fully dissolved and stable in these solvents.

Data set [8] concerns the target DRB1_0101 (Homo sapiens, UniProt P01903+P01911, A100R/D57E/F55L/F60I/F76Y/I96L/L162R/M171V/P40L/Q125E/R42F/V115G/Y59C). As to the kind of experiment: Competitive MHC class II binding assay, DRB1_0101.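 Note: competition against a radiolabeled probe peptide (0.1–1 nM) for purified HLA class II protein over 2–4 days, bound counts read after antibody capture, six competitor levels across 100,000-fold.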
In data set [9] the target is DRB1_0901 (Homo sapiens, UniProt P01903+P01911, A100R/A103E/D57H/D86V/F55Y/F60I/F76Y/I96F/K127E/L162R/M171V/P40D/Q125H/Q99R/R33Q/R42F/S133A/S66N/T210M/V115G/W38K/Y107V/Y59G/Y89S). As to the kind of experiment: Competitive MHC class II binding assay, DRB1_0901.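 Note: displacement of a radiolabeled probe peptide from purified HLA class II protein, bound counts read after two to four days incubation, six concentrations spanning 100,000-fold, unlabeled probe as reference.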
For data set [10], the target named is DRB1_0802 (Homo sapiens, UniProt P01903+P01911, A100R/A103L/A169T/F76Y/H45Y/I96F/K41T/L162R/M171V/P40S/Q125H/Q178H/Q39Y/Q99D/R218S/R42G/S66Y/V115G/W38E). As to the kind of experiment: Competitive MHC class II binding assay, DRB1_0802.
The target of data set [11] is DRB1_1101 (Homo sapiens, UniProt P01903+P01911, A100R/A169T/A87E/I96F/K41T/L162R/M171V/P40S/Q125H/Q178H/Q39Y/Q99D/R42S/S66Y/T262R/V115G/W38E). As to the kind of experiment: Competitive MHC class II binding assay, DRB1_1101.
For data set [12], the target named is T2, DPA10103-DPB10201 (Homo sapiens, UniProt P04440+P20036, A65V/A84D/A85E/K98E).
T2 sequence (P20036 29-260): T1 sequence (P20036 29-260)
T2 sequence (P04440 30-258 A65V/A84D/A85E/K98E): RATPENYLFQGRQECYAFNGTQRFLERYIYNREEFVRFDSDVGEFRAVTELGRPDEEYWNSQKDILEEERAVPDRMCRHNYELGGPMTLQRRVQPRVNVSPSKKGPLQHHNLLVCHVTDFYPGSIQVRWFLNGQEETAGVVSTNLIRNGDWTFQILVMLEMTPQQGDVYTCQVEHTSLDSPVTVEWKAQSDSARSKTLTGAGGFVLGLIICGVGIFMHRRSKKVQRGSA
As to the kind of experiment: Competitive MHC class II binding assay, DPA10103-DPB10201.

In data set [13] the target is DRB1_0301 (Homo sapiens, UniProt P01903+P01911, A100K/A102G/A103R/A169T/F55Y/I96L/K41T/L162R/M171V/P40S/Q125H/Q178H/Q39Y/R42S/S66N/T106N/T262R/W38E/Y61H). As to the kind of experiment: Competitive MHC class II binding assay, DRB1_0301.
Data set [14] concerns the target DRB1_0401 (Homo sapiens, UniProt P01903+P01911, A100K/A169T/F76Y/I96L/K127E/L162R/M171V/N62H/P40V/Q125Y/R42H/S133A/S149N/S66Y/V115G/V209L/W38E). As to the kind of experiment: Competitive MHC class II binding assay, DRB1_0401.
In data set [15] the target is DRB4_0101 (Homo sapiens, UniProt P01903+P13762, G164S). As to the kind of experiment: Competitive MHC class II binding assay, DRB4_0101.
The target in data set [16] is DRB3_0101 (Homo sapiens, UniProt P01903+P79483). As to the kind of experiment: Competitive MHC class II binding assay, DRB3_0101.
Data set [17] addresses DQA10501-DQB10201 (Homo sapiens, UniProt P01909+P01920, A45G/A70V/D89A/E106A/E77G/E98D/H199R/L107V/N214S/P84L/P87L/T103K/T109R/T172A/T60S/V78E/V99I/Y58L/Y62S/Y69I/Y79F). As to the kind of experiment: Competitive MHC class II binding assay, DQA10501-DQB10201.
Data set [18] deals with DRB1_0405 (Homo sapiens, UniProt P01903+P01911, A100R/A169T/D86S/F76Y/I96L/K127E/L162R/M171V/N62H/P40V/Q125Y/R42H/S133A/S149N/S66Y/V115G/V209L/W38E). As to the kind of experiment: Competitive MHC class II binding assay, DRB1_0405.
The target of data set [19] is DRB1_1501 (Homo sapiens, UniProt P01903+P01911). As to the kind of experiment: Competitive MHC class II binding assay, DRB1_1501.

Consider KGQQYDIKYTWNVPKIA [pep-126], for which the pIC50 in data set [1], in data set [2], in [3], in data set [4], in [5] and in [6] was greater than 6.00 in each case. The pIC50 in data set [8], in [9] and in [10] was greater than 6.00 in each case. In [7], the “Solubility at pH 7” value is reported as “Clear”.

For the sequence VQESYYRYVAREQSSRRPNAQ [pep-124], the pIC50 in data set [2], in data set [4], in data set [5], in data set [11], in data set [12] and in data set [10] was greater than 6.00 in each case.

In the case of QESYYRYVAREQSSRRPNAQ [pep-050], the pIC50 in data set [2], in data set [13], in [14], in [5] and in data set [11] was greater than 6.00 each time.

“RGLKQMKRVGDANV [HDM35A, reference compound]”: the pIC50 in data set [8], in data set [11] and in [10] was greater than 6.00 in each case.

As for KSENVVVTVKLVGDNGVLAS [pep-109], the pIC50 in [15], in data set [13], in data set [16], in [14], in data set [6] and in data set [11] was greater than 6.00 throughout. In data set [10], the pIC50 is greater than 6.00.

In the case of HRGKPFQLEAVFEANQNTKT [pep-091], the pIC50 in data set [1], in [15], in [17], in data set [3], in data set [6] and in data set [8] was greater than 6.00 throughout. Moreover, the pIC50 in data set [12], in data set [9], in [18] and in data set [10] was greater than 6.00 in each case.

On to ATESAYLAYRNTSLD [pep-022], for which the pIC50 in [19], in data set [3], in data set [4], in [14], in [8] and in data set [9] was greater than 6.00 each time. The pIC50 in data set [18] and in data set [10] was greater than 6.00 throughout.

In the case of “SYYRYVAREQS [HDM205, reference compound]”, the pIC50 in data set [19], in data set [15], in data set [4], in data set [14], in data set [6] and in [11] was greater than 6.00 each time. Moreover, the pIC50 in [9], in data set [18] and in data set [10] was greater than 6.00 in each case.
